According to patent publication US10584117B2, “1,3,4-oxadiazole amide derivative compound as histone deacetylase 6 inhibitor, and pharmaceutical composition containing same” (Chong Kun Dang Pharmaceutical Corp., priority 2015, dated 2020):

How the values were obtained:
human recombinant HDAC1 = target: T1, human recombinant HDAC1 (Homo sapiens, UniProt Q13547); assay: HDAC enzyme activity inhibition assay (HDAC1, fluorimetric kit); format: biochemical; conditions: 0.3 μg enzyme, 10 μM substrate, 30° C., 60 minutes
T1 construct: purchased Enzo Life Science BML-SE456
T1 sequence (Q13547 whole entry): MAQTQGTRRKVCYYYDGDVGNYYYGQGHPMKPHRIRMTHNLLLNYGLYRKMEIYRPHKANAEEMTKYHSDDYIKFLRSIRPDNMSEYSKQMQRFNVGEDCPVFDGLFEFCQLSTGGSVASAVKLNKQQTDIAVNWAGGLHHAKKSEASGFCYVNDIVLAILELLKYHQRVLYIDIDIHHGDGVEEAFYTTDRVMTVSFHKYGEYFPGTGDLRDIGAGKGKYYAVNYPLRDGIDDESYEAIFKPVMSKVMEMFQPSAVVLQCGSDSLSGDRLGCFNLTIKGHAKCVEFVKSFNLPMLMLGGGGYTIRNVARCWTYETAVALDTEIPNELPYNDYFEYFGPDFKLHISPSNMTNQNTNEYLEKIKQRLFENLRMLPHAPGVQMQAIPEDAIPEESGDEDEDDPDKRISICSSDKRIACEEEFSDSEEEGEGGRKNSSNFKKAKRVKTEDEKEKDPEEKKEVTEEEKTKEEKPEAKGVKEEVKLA
Method: In order to examine the HDAC6 selectivity of the compounds of formula I of the present invention by HDAC1 and HDAC6 enzymatic activity inhibition assays, an experiment was performed using a conventional substance as a control. HDAC enzyme activity was measured using a HDAC Fluorimetric Drug Discovery Kit (BML-AK511, 516) from Enzo Life Science. For the HDAC1 enzyme activity test, human recombinant HDAC1 (BML-SE456) was used as an enzyme source, and Fluor de Lys®-“SIRT1 (BNL-KI177) was used as a substrate. A 5-fold dilution of the compound was seeded into a 96-well plate, and then 0.3 μg of the enzyme and 10 μM of the substrate were added to each well of the plate and allowed to react at 30° C. for 60 minutes. Then, Fluor de Lys®-Developer II (BML-KI176) was added thereto and allowed to react for 30 minutes, after which the fluorescence value (Ex 360, Em 460) was measured using a multi-plate reader (Flexstation 3, Molecular Device). The HDAC6 enzyme was tested using human recombinant HDAC6 (382180) from Calbiochem, according to the same protocol as the HDAC1 enzyme activity test method. Based on the resulting values, each IC50 value was calculated using GraphPad Prism4.0 program.

human recombinant HDAC6 = target: T2, human recombinant HDAC6 (Homo sapiens, UniProt Q9UBN7); assay: HDAC enzyme activity inhibition assay (HDAC6, fluorimetric kit); format: biochemical; conditions: for HDAC6 selectivity (fold): HDAC6 versus HDAC1; for IC50: same protocol as the HDAC1 test
T2 construct: purchased Calbiochem 382180
T2 sequence (Q9UBN7 1-1215): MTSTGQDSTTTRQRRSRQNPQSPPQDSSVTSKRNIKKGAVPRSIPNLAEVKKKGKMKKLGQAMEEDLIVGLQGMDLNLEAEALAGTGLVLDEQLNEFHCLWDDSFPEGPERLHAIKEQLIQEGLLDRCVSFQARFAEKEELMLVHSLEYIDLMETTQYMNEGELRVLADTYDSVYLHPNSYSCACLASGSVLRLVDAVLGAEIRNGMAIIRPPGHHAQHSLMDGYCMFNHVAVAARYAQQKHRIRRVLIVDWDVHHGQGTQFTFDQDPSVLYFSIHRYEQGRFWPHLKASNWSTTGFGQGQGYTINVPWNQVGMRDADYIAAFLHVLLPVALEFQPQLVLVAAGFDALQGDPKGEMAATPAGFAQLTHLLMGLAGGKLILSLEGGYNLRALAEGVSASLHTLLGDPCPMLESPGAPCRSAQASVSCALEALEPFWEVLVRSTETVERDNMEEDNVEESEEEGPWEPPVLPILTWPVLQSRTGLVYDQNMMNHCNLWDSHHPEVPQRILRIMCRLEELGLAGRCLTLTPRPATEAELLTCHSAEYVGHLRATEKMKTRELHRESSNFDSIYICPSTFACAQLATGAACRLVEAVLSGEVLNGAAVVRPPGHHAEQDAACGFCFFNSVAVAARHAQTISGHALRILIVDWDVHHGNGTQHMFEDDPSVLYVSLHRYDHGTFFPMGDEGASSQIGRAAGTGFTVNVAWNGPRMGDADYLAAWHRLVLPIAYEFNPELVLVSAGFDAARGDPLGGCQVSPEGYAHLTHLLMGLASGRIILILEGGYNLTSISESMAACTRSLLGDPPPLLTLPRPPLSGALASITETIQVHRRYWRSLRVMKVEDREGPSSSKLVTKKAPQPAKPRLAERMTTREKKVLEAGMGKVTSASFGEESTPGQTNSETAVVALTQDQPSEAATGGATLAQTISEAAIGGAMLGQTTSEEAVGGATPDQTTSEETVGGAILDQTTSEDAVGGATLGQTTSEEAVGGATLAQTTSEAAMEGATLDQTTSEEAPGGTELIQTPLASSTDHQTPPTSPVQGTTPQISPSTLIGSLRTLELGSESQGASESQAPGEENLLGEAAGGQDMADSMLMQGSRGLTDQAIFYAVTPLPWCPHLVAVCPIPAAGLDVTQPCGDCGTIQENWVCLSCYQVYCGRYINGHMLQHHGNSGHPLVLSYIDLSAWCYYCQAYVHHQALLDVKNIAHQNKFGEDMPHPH
Summary of the method: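 Fluorimetric kit assay: human recombinant HDAC1 or HDAC6 (0.3 μg) reacted with 10 μM Fluor de Lys-SIRT1 substrate and 5-fold serially diluted compound for 60 minutes at 30° C, followed by 30 minutes of developer. Fluorescence was read at Ex 360/Em 460, and IC50 values were calculated from it.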

Question: What does the source list for `O=C(C1CCN(Cc2ccccc2)CC1)N(Cc1ccc(-c2nnc(C(F)(F)F)o2)cc1)c1ccccc1` [Compound 11166, 1-benzyl-N-phenyl-N-(4-(5-(trifluoromethyl)-1,3,4-oxadiazol-2-yl)benzyl)piperidine-4-carboxamide]?
Answer: IC50 (human recombinant HDAC1): 27.2 µM; HDAC6 selectivity (fold) (human recombinant HDAC6): 194 fold; IC50 (human recombinant HDAC6): 516 nM

Question: Which “HDAC6 selectivity (fold)” value (human recombinant HDAC6) does the source give for `CC(C)CC(=O)N(Cc1ccc(-c2nnc(C(F)F)o2)cc1F)c1cccc(F)c1` [Compound 11358, N-(4-(5-(difluoromethyl)-1,3,4-oxadiazol-2-yl)-2-fluorobenzyl)-N-(3-fluorophenyl)-3-methylbutanamide] here?
Answer: The value was 847 fold.

Question: And the IC50 (human recombinant HDAC6)?
Answer: Its IC50 is 118 nM.

Question: What does the source list for `CC(=O)N1CC(C(=O)N(Cc2ccc(-c3nnc(C(F)(F)F)o3)cc2F)c2ccccc2)C1` [Compound 11234, 1-acetyl-N-(2-fluoro-4-(5-(trifluoromethyl)-1,3,4-oxadiazol-2-yl)benzyl)-N-phenylazetidine-3-carboxamide]?
Answer: HDAC6 selectivity (fold) (human recombinant HDAC6): 1754 fold; IC50 (human recombinant HDAC6): 57 nM

Question: What does the source list for `O=C(c1ccncc1)N(Cc1ccc(-c2nnc(C(F)(F)F)o2)cc1F)c1ccccc1` [Compound 11109, N-(2-fluoro-4-(5-(trifluoromethyl)-1,3,4-oxadiazol-2-yl)benzyl)-N-phenylisonicotinamide]?
Answer: HDAC6 selectivity (fold) (human recombinant HDAC6): 1818 fold; IC50 (human recombinant HDAC6): 55 nM

Question: How did the “HDAC6 selectivity (fold)” value (human recombinant HDAC6) turn out when `O=C(c1ccncc1)N(Cc1ccc(-c2nnc(C(F)(F)F)o2)cc1)c1ccccc1` [Compound 11022, N-phenyl-N-(4-(5-(trifluoromethyl)-1,3,4-oxadiazol-2-yl)benzyl)isonicotinamide] was run?
Answer: The value was 427 fold.

Question: What about the IC50 (human recombinant HDAC6) of the same compound?
Answer: Its IC50 is 234 nM.

Question: With `CS(=O)(=O)N1CCN(CC(=O)N(Cc2ccc(-c3nnc(C(F)F)o3)cc2F)c2ccc(F)c(Cl)c2)CC1` [Compound 11613, N-(3-chloro-4-fluorophenyl)-N-(4-(5-(difluoromethyl)-1,3,4-oxadiazol-2-yl)-2-fluorobenzyl)-2-(4-(methylsulfonyl)piperazin-1-yl)acetamide] as the compound, how does the “HDAC6 selectivity (fold)” value (human recombinant HDAC6) read?
Answer: Its value is 676 fold.

Question: What about the IC50 (human recombinant HDAC6) of the same compound?
Answer: Its IC50 is 148 nM.

Question: With `O=C(c1ccncc1)N(Cc1ccc(-c2nnc(C(F)(F)F)o2)cn1)c1ccccc1` [Compound 11584, N-phenyl-N-((5-(5-(trifluoromethyl)-1,3,4-oxadiazol-2-yl)pyridin-2-yl)methyl)isonicotinamide] as the compound, how does the “HDAC6 selectivity (fold)” value (human recombinant HDAC6) read?
Answer: The value was 1695 fold.

Question: And the IC50 (human recombinant HDAC6)?
Answer: The IC50 was 59 nM.

Question: `CCN1CC(C(=O)N(Cc2ccc(-c3nnc(C(F)(F)F)o3)cc2F)c2ccccc2)C1` [Compound 11233, 1-ethyl-N-(2-fluoro-4-(5-(trifluoromethyl)-1,3,4-oxadiazol-2-yl)benzyl)-N-phenylazetidine-3-carboxamide] was tested. Which “HDAC6 selectivity (fold)” value (human recombinant HDAC6) did it give?
Answer: The value was 2703 fold.

Question: And the IC50 (human recombinant HDAC6)?
Answer: The IC50 was 37 nM.

Question: `CN1CC(C(=O)N(Cc2ccc(-c3nnc(C(F)F)o3)cc2F)c2cccc(F)c2)C1` [Compound 11325, N-(4-(5-(difluoromethyl)-1,3,4-oxadiazol-2-yl)-2-fluorobenzyl)-N-(3-fluorophenyl)-1-methylazetidine-3-carboxamide] was tested. Which “HDAC6 selectivity (fold)” value (human recombinant HDAC6) did it give?
Answer: The value was 1111 fold.

Question: What about the IC50 (human recombinant HDAC6) of the same compound?
Answer: Its IC50 is 90 nM.

Question: Which “HDAC6 selectivity (fold)” value (human recombinant HDAC6) does the source give for `O=C(CN1CC[C@H](O)C1)N(Cc1ccc(-c2nnc(C(F)F)o2)cc1F)c1ccc(F)c(Cl)c1` [Compound 11536, (S)-N-(3-chloro-4-fluorophenyl)-N-(4-(5-(difluoromethyl)-1,3,4-oxadiazol-2-yl)-2-fluorobenzyl)-2-(3-hydroxypyrrolidin-1-yl)acetamide] here?
Answer: Its value is 1042 fold.

Question: What about the IC50 (human recombinant HDAC6) of the same compound?
Answer: The IC50 was 96 nM.

Question: `CCN1CCC(C(=O)N(Cc2ccc(-c3nnc(C(F)(F)F)o3)cc2F)c2ccccc2)CC1` [Compound 11201] was tested. Which “HDAC6 selectivity (fold)” value (human recombinant HDAC6) did it give?
Answer: Its value is 877 fold.

Question: What about the IC50 (human recombinant HDAC6) of the same compound?
Answer: The IC50 was 114 nM.

Question: For `CC(C)N1CC(C(=O)N(Cc2ccc(-c3nnc(C(F)F)o3)cc2F)c2cccc(F)c2)C1` [Compound 11329, N-(4-(5-(difluoromethyl)-1,3,4-oxadiazol-2-yl)-2-fluorobenzyl)-N-(3-fluorophenyl)-1-isopropylazetidine-3-arboxamide], which “HDAC6 selectivity (fold)” value (human recombinant HDAC6) is on record?
Answer: The value was 1786 fold.

Question: What about the IC50 (human recombinant HDAC6) of the same compound?
Answer: Its IC50 is 56 nM.

Question: With `O=C(c1ccncc1)N(Cc1ccc(-c2nnc(C(F)F)o2)cn1)c1ccccc1` [Compound 11341, N-((5-(5-(difluoromethyl)-1,3,4-oxadiazol-2-yl)pyridin-2-yl)methyl)-N-phenylisonicotinamide] as the compound, how does the “HDAC6 selectivity (fold)” value (human recombinant HDAC6) read?
Answer: Its value is 2941 fold.

Question: What about the IC50 (human recombinant HDAC6) of the same compound?
Answer: The IC50 was 34 nM.
